The results in this text go back to patent US20260159499A1, “COMPOUND AS FAK INHIBITOR AND USE THEREOF” (WIGEN BIOMEDICINE TECHNOLOGY (SHANGHAI) CO., LTD., priority 2021, published 2026).

pIC50: −log10 of the molar value.

One series addresses FAK recombinant protein (Homo sapiens, UniProt Q05397). The series can be described thus: Inhibitory activity against FAK enzyme. The class given is biochemical. As to conditions: TK substrate, ATP. The method in brief:
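Compound preincubated with FAK recombinant protein 10 min at room temperature, then biotin-labeled TK substrate and ATP added and incubated 1 h at room temperature.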

For series [1], the system named is PC3 cells. The series can be described thus: PC3 cell proliferation, 2D activity detection. In kind it is cell-based, human. As to conditions: Homo sapiens, PC-3, PC3, 2D, 72 h, read-out: 2D IC50 against PC3 cells. How it is done:
2D activity detection: 1200 PC3 cells were seeded in a 96-well plate. After overnight adherence culture, the compound serially diluted was added. 72 h after addition, Cell Titer-Lumi (Beyotime C0068XL) was added to measure the ATP content in the cells. The growth of the cells was evaluated, and IC50 of the compounds against cell growth was calculated.

Series [2] relates to PC3 cells. The series can be described thus: PC3 cell proliferation, 3D activity detection. In kind it is cell-based, human. As to conditions: Homo sapiens, PC-3, 336 h, PC3, 3D culture, 14 days, read-out: 3D IC50 against PC3 cells. The procedure: 3D activity detection: PC3 cells were seeded in a 96-well plate at 1200 cells/well, and 3D culture was performed. 14 days after the compound serially diluted was added, the growth of the cells was determined. The inhibition percentage and IC50 of the compound were calculated compared to the DMSO control group.

The test system of series [3] is PC3 cells. As to the kind of experiment: Inhibition of PC3 cell adherence. The class given is cell-based. As to conditions: Homo sapiens, PC-3; PC3, 4 h treatment; read-out: Inhibitory activity against PC-3 cell adherence IC50. How it is done: PC3 cells were added at 8000 cells/well. 4 h after the cells were treated with the compound, the number of adherent cells was counted. The inhibition percentages and IC50 of the compounds were calculated compared to the DMSO group.

The nature of series [4]: In vivo pharmacokinetic experiment in mice. Also noted: species or system CD-1 female mice. As to conditions: CD-1 mice. How it is done:
On the day of the experiment, animals in the intravenous group were administered the corresponding compound by single injection via the tail vein at an administration volume of 10 mL/kg, and animals in the oral group were administered the corresponding compound by single intragastric injection at an administration volume of 10 mL/kg. The animals were weighed before administration, and the administration volume was calculated according to the body weight. […] About 200 μL of whole blood was collected through the orbital venous plexus at each time point and used to prepare plasma for concentration determination by high-performance liquid chromatography-tandem mass spectrometry (LC-MS/MS). The plasma concentrations were processed using a non-compartmental model of Winnolin pharmacokinetic software, and the pharmacokinetic parameters were calculated using a linear-log trapezoidal method.

Series [5] relates to Human prostatic cancer PC3 cells. As to the kind of experiment: In vivo efficacy test in PC-3 model. The arrangement: species or system BALB/c nude mice. As to conditions: 25 mg/kg, PO, QD (21 days).
Procedure: Female BALB/c nude mice (aged 6 weeks, 18-22 g) were provided by Vital River Laboratory Animal Technology Co., Ltd. (China) and used one week after quarantine and acclimation. All animals were kept in a room at 23±2° C. with a relative humidity of 50±5%, artificial lighting was provided from 08:00 to 20:00 every day, and the air was exchanged 13-18 times per hour.
After being subcultured, the cells were collected when they reached the desired amount. 1×10^7 PC3 cells were injected into the left dorsal side of each nude mouse, and the animals were randomly grouped for administration after tumors grew to 100-200 mm^3. The mice in the solvent control group were intragastrically administered 0.5% MC-Tween-80 twice a day; the mice in the compound groups were intragastrically administered 0.5% MC-Tween-80 suspension once a day. On Tuesday and Thursday each week, tumor volumes and body weight of the mice were measured, and the nude mice were sacrificed on day 21 after the administration.
(§1) The toxicity of the compounds was evaluated according to the body weight of the mice.
The subject of series [6] is Mouse colon cancer MC38 cells. The series can be described thus: In vivo efficacy experiment in MC38 model. Also noted: species or system BALB/c mice. As to conditions: single drug 50 mg/kg, PO, QD (21 days). The procedure: The BALB/c mice were subcutaneously injected with 1×10^6 MC38 cells on the right side to form tumors. […] The administration was then started. Tumor volumes were measured with a caliper on day 3, day 7, day 10, day 14, day 17 and day 21 after the administration.

For series [7], the system named is Human pancreatic cancer Mia PaCa-2 cells. The series can be described thus: In vivo efficacy test in MiaPaCa-2 model. As to conditions: 25 mg/kg, PO, QD (21 days).
Procedure: After being subcultured, the cells were collected when they reached the desired amount. 1×10^7 Mia PaCa-2 cells were injected into the left dorsal side of each nude mouse, and the animals were randomly grouped for administration after tumors grew to 100-200 mm^3. The mice in the solvent control group were intragastrically administered 0.5% MC-Tween-80 twice a day; the mice in the compound groups were intragastrically administered 0.5% MC-Tween-80 suspension once a day. On Tuesday and Thursday each week, tumor volumes and body weight of the mice were measured, and the nude mice were sacrificed on day 21 after the administration.
as §1
Where [8] appears, read: female, mouse, plasma, injection (IV) 1 mg/kg (footnote).
Setting [9] is: female, mouse, plasma, oral administration 10 mg/kg.

Sequence of FAK recombinant protein (Q05397 whole entry, species assumed): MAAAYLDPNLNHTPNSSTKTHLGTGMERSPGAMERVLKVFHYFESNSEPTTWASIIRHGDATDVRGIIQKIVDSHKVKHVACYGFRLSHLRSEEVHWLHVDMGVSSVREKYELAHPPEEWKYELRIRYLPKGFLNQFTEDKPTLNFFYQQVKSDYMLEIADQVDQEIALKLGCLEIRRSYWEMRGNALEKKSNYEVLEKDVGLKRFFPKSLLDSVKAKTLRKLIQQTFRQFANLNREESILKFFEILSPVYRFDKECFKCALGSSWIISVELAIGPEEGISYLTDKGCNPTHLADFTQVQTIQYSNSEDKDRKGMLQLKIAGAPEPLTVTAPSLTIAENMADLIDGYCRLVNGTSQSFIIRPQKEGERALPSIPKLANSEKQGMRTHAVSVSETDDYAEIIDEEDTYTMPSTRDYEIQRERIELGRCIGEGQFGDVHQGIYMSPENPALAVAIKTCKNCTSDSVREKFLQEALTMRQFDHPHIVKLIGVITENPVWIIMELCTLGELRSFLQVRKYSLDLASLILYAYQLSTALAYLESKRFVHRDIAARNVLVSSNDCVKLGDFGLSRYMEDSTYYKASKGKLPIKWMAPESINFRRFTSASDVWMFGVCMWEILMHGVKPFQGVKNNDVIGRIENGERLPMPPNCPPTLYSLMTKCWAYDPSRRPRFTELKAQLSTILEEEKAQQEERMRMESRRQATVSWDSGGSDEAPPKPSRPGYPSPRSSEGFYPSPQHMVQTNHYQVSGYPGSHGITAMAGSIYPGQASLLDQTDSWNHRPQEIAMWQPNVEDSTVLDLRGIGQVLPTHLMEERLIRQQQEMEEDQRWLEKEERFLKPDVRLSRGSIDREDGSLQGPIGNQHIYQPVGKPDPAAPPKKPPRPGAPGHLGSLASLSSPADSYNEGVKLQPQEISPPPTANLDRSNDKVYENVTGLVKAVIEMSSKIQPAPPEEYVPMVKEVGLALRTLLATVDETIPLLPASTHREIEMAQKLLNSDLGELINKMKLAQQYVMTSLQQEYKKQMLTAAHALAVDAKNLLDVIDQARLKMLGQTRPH

In the case of `COc1cc(N2CC3(CCN(C)CC3)C2)ccc1Nc1ncc(C(F)(F)F)c(Oc2cccc3c2C(=O)N(C)C3)n1` [Compound 90, 7-((2-((2-methoxy-4-(7-methyl-2,7-diazaspiro[3.5]non-2-yl)phenyl)amino)-5-(trifluoromethyl)pyrimidin-4-yl)oxy)-2-methylisoindolin-1-one], the pIC50 (commonly −log10 of the IC50, conventionally taken in molar units) at FAK recombinant protein is over 8.00; with PC3 cells [1] (numeric), under 5.00; with PC3 cells [2] (numeric (mean where marked *)), 9.10; in the series on PC3 cells [3] it was 8.73. Further, the “oral bioavailability and oral absorption properties (in words)” value in series [4] (oral 10 mg/kg) is “good oral bioavailability and good oral absorption properties”. The AUC(0-t) (in general, the area under the concentration-time curve up to a stated or last time point) in series [4] (setting [8]) worked out at 812 ng·h/mL; in series [4] (setting [9]) it was 7460 ng·h/mL. Also, the clearance (usually a measure of how efficiently the substance is removed, as volume per time) in series [4] (setting [8]) came to 20.5 mL/min/kg. Moreover, the half-life (in general, the time in which the quantity being followed falls by half) in series [4] (setting [8]) was 3.08 h; in series [4] (setting [9]), 2.82 h. For the same molecule, the Vd in series [4] (female, mouse, plasma, injection (IV) 1 mg/kg (footnote), read-out: Vdss) is 5.34 L/kg. Besides, the Cmax (usually the peak of the concentration-time curve) in series [4] (setting [9]) was 635 ng/mL. For the same molecule, the Tmax (usually the time from dosing to the highest level) in series [4] (setting [9]) amounted to 4 h. For the same molecule, the bioavailability (usually dose-corrected exposure relative to a reference, in per cent) in series [4] (female, mouse, plasma, oral administration 10 mg/kg vs injection) was 92%. Further, the “Change in body weight” value in series [5] is on record as −0.5%; in series [6], “+13.54%”; in series [7], “+3.67%”. The “TGI (%)” value in series [5] came out at 81.65%; in series [6], 59.02%; in series [7] it was 83.72%.
In the case of `COc1cc(N2CC3(CCN(C)CC3)C2)ccc1Nc1ncc(Cl)c(Oc2cccc3c2C(=O)N(C)C3)n1` [Compound 111], the negative logarithm of the IC50 (pIC50) at FAK recombinant protein is over 8.00; in the series on PC3 cells [1] (class symbol) it was under 5.70; with PC3 cells [2] (numeric (mean where marked *)), 8.75; with PC3 cells [3], 8.79. For the same molecule, the “Change in body weight” value in series [5] is listed as −1.4%; in series [6] it was “+21.07%”; in series [7], “+6.08%”. The “TGI (%)” value in series [5] amounted to 87.4%; in series [6], 47.67%; in series [7], 82.32%.
As to `COc1cc(N2CC3(CCN(C)CC3)C2)ccc1Nc1ncc(Br)c(Oc2cccc3c2C(=O)N(C)C3)n1` [Compound 112], the pIC50 was over 8.00 on FAK recombinant protein, under 5.70 in the series on PC3 cells [1] (class symbol), 9.18 with PC3 cells [2] (numeric (mean where marked *)) and 9.03 with PC3 cells [3].
The like results for `COc1cc(N2CC3(CCN(C)CC3)C2)ccc1Nc1ncc(C#N)c(Oc2cccc3c2C(=O)N(C)C3)n1` [Compound 113] were, in that order, over 8.00, under 5.70, 8.80 and 8.45.
As to `COc1cc(N2CC3(CCN(C)CC3)C2)ccc1Nc1ncc([N+](=O)[O-])c(Oc2cccc3c2C(=O)N(C)C3)n1` [Compound 114], the pIC50 on FAK recombinant protein is over 8.00; with PC3 cells [1] (class symbol), under 5.70; in the series on PC3 cells [2] (class symbol), over 8.30; in the series with PC3 cells [3], 8.58.
